In patent US10167262B2, “Herbicidal substituted 3-arylpyrazoles” (FMC CORPORATION, priority 2014, dated 2019):

Assays:
Assay type in all cases: in vivo
kochia (Kochia scoparia) = assay: Test C postemergence greenhouse test, plant response rating 0-100; settings: for Plant response rating, Kochia: scale 0 to 100
In short: (§1)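 Postemergence spray of formulated test chemicals on plants 2 to 18 cm tall (1- to 4-leaf stage) grown in peat/vermiculite medium. Greenhouse hold 13 to 15 days, then visual comparison with untreated controls on a 0-100 scale (0 no effect, 100 complete control); dash means no test result.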

[1] = system: chickweed (common chickweed, Stellaria media); assay: as above; settings: for Plant response rating, Chickweed: scale 0 to 100
In short: as §1

wild oat (Avena fatua) = assay: as above; settings: for Plant response rating, Oat, Wild: scale 0 to 100
In short: as §1

[2] = system: johnsongrass (Sorghum halepense); assay: Test C pre-/postemergence greenhouse test, plant response rating 0-100; settings: Postemergence; for Plant response rating, Johnsongrass: scale 0 to 100
In short: (§2)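 After treatment, pots stay in the greenhouse 13–15 days before each species is compared with untreated controls and given a 0–100 visual score. Preemergence seeds are in loam blended with sand; postemergence plants, 1–4 leaves, are in peat-based medium.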

soybean (Glycine max) = assay: as above; settings: Postemergence; for Plant response rating, Soybean: scale 0 to 100
In short: as §2

[3] = system: winter wheat (Triticum aestivum); assay: as above; settings: Postemergence; for Plant response rating, Wheat: scale 0 to 100
In short: as §2

[4] = system: giant foxtail (Setaria faberii); assay: as above; settings: Postemergence; for Plant response rating, Foxtail, Giant: scale 0 to 100
In short: as §2

corn (Zea mays) = assay: as above; settings: Postemergence; for Plant response rating, Corn: scale 0 to 100
In short: as §2

[5] = system: velvetleaf (Abutilon theophrasti); assay: as above; settings: Postemergence; for Plant response rating, Velvetleaf: scale 0 to 100
In short: as §2

[6] = system: blackgrass (Alopecurus myosuroides); assay: as above; settings: Postemergence; for Plant response rating, Blackgrass: scale 0 to 100
In short: as §2

[7] = system: lambsquarters (Chenopodium album); assay: as above; settings: Postemergence; for Plant response rating, Lambsquarters: scale 0 to 100
In short: as §2

[8] = system: pigweed (Amaranthus retroflexus); assay: as above; settings: Postemergence; for Plant response rating, Pigweed: scale 0 to 100
In short: as §2

[9] = system: morningglory (Ipomoea coccinea); assay: as above; settings: Postemergence; for Plant response rating, Morningglory: scale 0 to 100
In short: as §2

Fc1cccc(NN=C(c2ccccc2)c2c[nH]nc2-c2cc(Cl)cc(Cl)c2)c1 [Compound 58]
60: Plant response rating (0 to 100), Velvetleaf ([5]; 62 g ai/ha)
100: Plant response rating (0 to 100), Chickweed ([1]; 125 g ai/ha) | Plant response rating, Chickweed ([1]; 250 g ai/ha) | Plant response rating, Chickweed ([1]; 500 g ai/ha) | Plant response rating (0 to 100), Lambsquarters ([7]; 125 g ai/ha) | Plant response rating, Lambsquarters ([7]; 250 g ai/ha) | Plant response rating, Lambsquarters ([7]; 500 g ai/ha) | Plant response rating (0 to 100), Pigweed ([8]; 62 g ai/ha) | Plant response rating (0 to 100), Pigweed ([8]; 125 g ai/ha) | Plant response rating, Pigweed ([8]; 250 g ai/ha) | Plant response rating, Pigweed ([8]; 500 g ai/ha)
25: Plant response rating (0 to 100), Johnsongrass ([2]; 125 g ai/ha) | Plant response rating, Johnsongrass ([2]; 250 g ai/ha) | Plant response rating, Johnsongrass ([2]; 500 g ai/ha)
75: Plant response rating, Velvetleaf ([5]; 500 g ai/ha)
50: Plant response rating (0 to 100), Kochia (kochia (Kochia scoparia); 125 g ai/ha)
10: Plant response rating, Soybean (soybean (Glycine max); 250 g ai/ha) | Plant response rating, Soybean (soybean (Glycine max); 500 g ai/ha)
0: Plant response rating (0 to 100), Oat, Wild (wild oat (Avena fatua); 62 g ai/ha) | Plant response rating (0 to 100), Oat, Wild (wild oat (Avena fatua); 125 g ai/ha) | Plant response rating, Oat, Wild (wild oat (Avena fatua); 250 g ai/ha) | Plant response rating, Oat, Wild (wild oat (Avena fatua); 500 g ai/ha) | Plant response rating (0 to 100), Johnsongrass ([2]; 62 g ai/ha) | Plant response rating (0 to 100), Soybean (soybean (Glycine max); 62 g ai/ha) | Plant response rating (0 to 100), Wheat ([3]; 62 g ai/ha) | Plant response rating (0 to 100), Wheat ([3]; 125 g ai/ha) | Plant response rating, Wheat ([3]; 250 g ai/ha) | Plant response rating, Wheat ([3]; 500 g ai/ha) | Plant response rating (0 to 100), Foxtail, Giant ([4]; 62 g ai/ha) | Plant response rating (0 to 100), Foxtail, Giant ([4]; 125 g ai/ha) | Plant response rating, Foxtail, Giant ([4]; 250 g ai/ha) | Plant response rating (0 to 100), Corn (corn (Zea mays); 62 g ai/ha) | Plant response rating (0 to 100), Blackgrass ([6]; 62 g ai/ha) | Plant response rating (0 to 100), Blackgrass ([6]; 125 g ai/ha) | Plant response rating, Blackgrass ([6]; 250 g ai/ha) | Plant response rating, Blackgrass ([6]; 500 g ai/ha) | Plant response rating (0 to 100), Morningglory ([9]; 62 g ai/ha) | Plant response rating (0 to 100), Morningglory ([9]; 125 g ai/ha) | Plant response rating, Morningglory ([9]; 250 g ai/ha) | Plant response rating, Morningglory ([9]; 500 g ai/ha)
70: Plant response rating (0 to 100), Chickweed ([1]; 62 g ai/ha) | Plant response rating, Velvetleaf ([5]; 250 g ai/ha) | Plant response rating (0 to 100), Lambsquarters ([7]; 62 g ai/ha)
65: Plant response rating (0 to 100), Velvetleaf ([5]; 125 g ai/ha)
98: Plant response rating, Kochia (kochia (Kochia scoparia); 250 g ai/ha) | Plant response rating, Kochia (kochia (Kochia scoparia); 500 g ai/ha)
15: Plant response rating (0 to 100), Kochia (kochia (Kochia scoparia); 62 g ai/ha)
5: Plant response rating (0 to 100), Soybean (soybean (Glycine max); 125 g ai/ha) | Plant response rating, Foxtail, Giant ([4]; 500 g ai/ha) | Plant response rating (0 to 100), Corn (corn (Zea mays); 125 g ai/ha) | Plant response rating, Corn (corn (Zea mays); 250 g ai/ha) | Plant response rating, Corn (corn (Zea mays); 500 g ai/ha)
